A short description of data set [1]: Mass balance, single PO dose of 300 mg 14C-GNX in healthy male volunteers. The settings on record: human, plasma. Type of data set: in vivo. An excerpt: The total plasma radioactivity concentrations achieved were much higher than GNX plasma levels in clinical studies with non-labelled GNX. […] Approximately 80% of the total radioactivity was excreted in faeces and urine by Day 14. […] PK parameters (mean±SD) of ^14C-GNX-derived total radioactivity in Healthy Male Volunteers (Study No. CA042 9402.01 [n=5]) are summarized in Table 22.

For data set [2], the system named is rabbits. Kind of data set: Local tolerance study in rabbits. It counts as in vivo, rabbit. As for the experimental part:
When given IV to rats and dogs, the main dose limiting toxicity finding was sedation. The no observed adverse effect level (NOAEL) after IV dosing in rats for 14 days was established at 42 mg/kg/day for males and 30 mg/kg/day for females. The NOAEL in dog after administration of ganaxolone by IV bolus followed by continuous IV infusion for 28 days was 7.20 mg/kg/day, which corresponded to a steady-state concentration of approximately 330 ng/mL and 333 ng/mL. There were no findings in a local tolerance study in rabbits.

For `CC(=O)[C@H]1CC[C@H]2[C@@H]3CC[C@H]4C[C@](C)(O)CC[C@]4(C)[C@H]3CC[C@]12C` [Ganaxolone, 3α-hydroxy-3β-methyl-5α-pregnan-20-one], the Half-life in data set [1] is ~25 h. For the same compound, in data set [2], the Local tolerance result is given as “no findings”.

Source of the values: patent publication US20250082651A1, “GANAXOLONE FOR USE IN TREATING GENETIC EPILEPTIC DISORDERS” (Marinus Pharmaceuticals, Inc., priority 2017, published 2025).
